One test deals with T1, delta-5-desaturase (Rattus norvegicus, UniProt Q920R3).
T1 construct: the microsomal fraction of a rat river (10 μl), which had been diluted to 3 mg/ml; from tissue; host or cells: rat liver microsomal fraction
Description: Inhibitory activity on delta-5-desaturase (rat liver microsomal fraction, 14C-eicosatrienoic acid, TLC). The conditions noted are these: test compound at 10 μM, room temperature, 120 minutes. In kind it is biochemical. The method in brief:
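Rat liver microsomes (3 mg/ml before addition) incubated with test compound at 10 μM, NADH, ATP, CoA and 14C-eicosatrienoic acid in phosphate buffer pH 7.4 with BSA and glutathione, 120 min at room temperature. Lipids saponified, extracted, separated by reverse-phase TLC and imaged; % inhibition reported.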
For orientation: Microsomes from liver hold many membrane-bound enzymes, among them those of drug oxidation.

The subject of test [1] is atherogenic diet fed apoE-deficient mice. Description: Anti-atherosclerotic and anti-obesity effects in atherogenic diet fed apoE-deficient mice. It counts as in vivo. As to conditions: 10 mg/kg/day p.o. for 15 weeks, male apoE-deficient mice on high fat diet, vehicle group taken as 100%. The procedure:
Assessments of anti-atherosclerotic effects and anti-obesity effects on atherogenic diet fed apoE-deficient mice were performed by the method described below.
Male apoE-deficient mice of 11-13 week-age (Jacson Lab) conditioned with ordinary diet (Research Diet) in separate cages were allowed to take high fat diet (Research Diet) at libitum for 14 weeks to thereby form atherosclerotic lesions in the aorta. The test compound suspended in 0.5% methyl cellulose solution was forcedly and orally administered to the mice at 10 ml/kg everyday for 15 weeks from 1 week prior to the start of the high fat diet feeding. Body weights were measured on the day of autopsy. The body weight reduction ratio of test compound-administered group was calculated taking the body weight of vehicle-administered group as 100%, to thereby obtain an index for anti-obesity effects. The aorta (from immediately above the aortic valve to the ventral branch of common iliac artery) removed under anesthesia was totally incised after removal of adipose tissue, etc. adhering to the outer membrane of the aorta, to thereby prepare an incised aorta specimen. After formalin fixing, the incised aorta specimen was subjected to staining with oil red O. The thus stained incised aorta specimen was photographed with a digital camera. Subsequently, image analysis using Image Pro program (Planetron, Inc.) was performed to determine the area of atherosclerotic lesions stained red and the total area of the incised specimen (the area of vascular inner wall). The ratio of atherosclerotic lesions (%) was calculated by dividing the area of atherosclerotic lesions by the area of vascular inner wall. The reduction ratio of the atherosclerotic lesion area (%) in test compound-administered group was calculated taking the area of atherosclerotic lesions in vehicle-administered group as 100%, to thereby obtain an index for anti-atherosclerotic effects. All the measurement of the ratio of atherosclerotic lesions was performed in a blind fashion.

In a further test the test system is ob/ob mice. Description: Anti-diabetic effects in ob/ob mice, a type 2 diabetic model. In kind it is in vivo. The conditions noted are these: 10 mg/kg/day p.o. once a day for 6 weeks; male ob/ob mice; vehicle group 7.1%. The procedure:
Anti-diabetic effects in ob/ob mice, a type 2 diabetic model were evaluated as describe next.
Male 9-week-old ob/ob mice (Charls river) habituated for a week were housed individually and freely fed a normal chow (CE-2, Japan Clea). The test compound was suspended in 0.5% methylcellulose solution. Vehicle (0.5% methylcellulose) or the compound was orally administered (5 mL/kg) once a day for 6 weeks. At the end of the treatment, bloods were collected from tail vein. The levels of glycosylated hemoglobin were measured as an index of diabetes severity using automated GHb analyzer (TOSOH Corporation).

A word on the inhibition: it is the relative decrease from the control value, in per cent.

T1 sequence (Q920R3 whole entry): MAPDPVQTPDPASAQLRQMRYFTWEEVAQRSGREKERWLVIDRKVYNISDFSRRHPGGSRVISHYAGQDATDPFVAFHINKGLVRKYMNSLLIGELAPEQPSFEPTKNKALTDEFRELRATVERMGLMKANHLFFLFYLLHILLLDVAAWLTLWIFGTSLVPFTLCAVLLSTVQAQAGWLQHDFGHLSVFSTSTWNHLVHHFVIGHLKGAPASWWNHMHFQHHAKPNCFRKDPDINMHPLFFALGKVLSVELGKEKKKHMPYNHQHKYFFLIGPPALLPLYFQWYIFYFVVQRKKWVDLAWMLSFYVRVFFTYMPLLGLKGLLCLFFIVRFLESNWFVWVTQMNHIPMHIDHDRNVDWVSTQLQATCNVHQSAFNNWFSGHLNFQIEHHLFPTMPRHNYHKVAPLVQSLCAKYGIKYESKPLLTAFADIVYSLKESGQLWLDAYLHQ

Consider `O=C1Cc2c(nc(OCC(F)(F)C(F)(F)F)n(-c3ccc(OCC(F)(F)F)cc3)c2=O)N1` [Example 326, 2-(2,2,3,3,3-Pentafluoropropoxy)-3-[4-(2,2,2-trifluoroethoxy)phenyl]-5,7-dihydro-3H-pyrrolo[2,3-d]pyrimidine-4,6-dione], for which, at delta-5-desaturase, the inhibition at 10 µM worked out at 102%. Besides, in test [1] (aorta, oil red O staining), the “Reduction in atherosclerotic lesion area (%)” value was 41%. For the same compound, in test [1], the “Reduction in body weight (%)” value worked out at 11%. Moreover, the “Glycosylated hemoglobin (%)” value in the test on ob/ob mice came to 6.0%.

The record behind these values is patent US20100190747A1, “Fused ring compound and use thereof” (priority 2009, published 2010).
